This note sets out measurements from patent publication US20230014181A1, “CULTURE SYSTEM AND METHODS FOR IMPROVED MODELING OF NEUROLOGICAL CONDITIONS” (Genentech, Inc., priority 2021, published 2023).

This assay relates to human iPSC neurons, astrocytes and microglia treated with 5 μM sAβ42s. Description: Focused small molecule screen, triple culture (neuron, astrocyte, microglia), rescue from sAβ42s toxicity. It is filed as cell-based. To be noted: for percent rescue from sAβ42s toxicity at 50 µM / percent rescue from sAβ42s toxicity at 12.5 µM / percent rescue from sAβ42s toxicity at 0.78 µM / percent rescue from sAβ42s toxicity at 3.13 µM: Homo sapiens, iPSC. The procedure:
FIGS. 11A-11D show synapse % rescue versus MAP2% rescue (FIGS. 11A-11B) and beta III tubulin % rescue versus MAP2% rescue (FIGS. 11C-11D), in neurons and astrocytes (FIGS. 11A and 11C) or neurons, astrocytes, and microglia (FIGS. 11B and 11D) treated with 5 μM sAβ42s and small molecules from a focused screen of known neuroprotective agents at multiple concentrations (50 μM, 25 μM, 12.5 μM and 6.25 μM (double culture), 50 μM, 12.5 μM, 3.1 μM and 0.78 μM (triple culture). Small molecules that prevented toxicity in dendrites (MAP2), synapses (Synapsin 1/2), cell count (CUX2), or axons ([…]) at or above 30% were considered hits (red dotted line).
Frozen cells were thawed and immediately seeded at a density of 8,000 cells/well of a 384-well plate onto 8-week old neuron-astrocyte co-culture in Microglia media (BrainPhys™ neuronal media (Stem Cell Technologies) supplemented with 1× B27 with vitamin A, 1×N2 Plus Media Supplement (R&D Systems), 20 ng/mL BDNF, 20 ng/mL GDNF, 1 mM creatine, 200 nM L-ascorbic acid, 1 μg/mL mouse laminin, 0.5 mM GlutaMAX™ (Thermofisher), 0.5× penicillin-streptomycin, 1× normocin, 5 ng/mL TGF-β, 100 ng/mL human IL-34, 1.5 μg/mL cholesterol, 1 ng/mL gondoic acid, 100 ng/mL oleic acid, 460 μM thioglycerol, 1× insulin-transferrin-selenium, 25 ng/mL rhM-CSF, 5.4 μg/mL human insulin solution).
In double (neuron, astrocyte) and triple (neuron, astrocyte, microglia) cultures, each small molecule listed in Table 1 was tested in the AD model paradigm at up to four concentrations. Molecules that characterized ≥30% rescue in any of the four measurements of dendrites area (MAP2), synapses count (synapsin 1/2), or cell count (CUX2), or axon area (Beta III Tubulin; “BT3”)) were classified as hits (FIGS. 11A-11D, Table 2, and Table 3).

The mark [1] stands for this setting: 50.00 μM compound, read-out: % B3T rescue.
The mark [2] stands for this setting: 50.00 μM compound, read-out: % MAP2 rescue.
The mark [3] stands for this setting: 50.00 μM compound, read-out: % Synapse rescue.
[4] abbreviates: 12.50 μM compound, read-out: % B3T rescue.
Where [5] appears, read: 12.50 μM compound, read-out: % MAP2 rescue.
Where [6] appears, read: 12.50 μM compound, read-out: % Synapse rescue.
The mark [7] stands for this setting: 0.78 μM compound, read-out: % B3T rescue.
[8] abbreviates: 0.78 μM compound, read-out: % MAP2 rescue.
Where [9] appears, read: 0.78 μM compound, read-out: % Synapse rescue.
Where [10] appears, read: 3.13 μM compound, read-out: % B3T rescue.
Setting [11] is: 3.13 μM compound, read-out: % MAP2 rescue.
The mark [12] stands for this setting: 3.13 μM compound, read-out: % Synapse rescue.

The structures appear in SMILES notation. Counter-ions that a name gives are not always drawn. Like-named read-outs stand apart in the source and are kept apart here.

On to `COc1ccc(S(=O)(=O)NCCCC(=O)Nc2ccc(Sc3ccc(N)cc3)cc2)cc1` [BI-6C9], for which, for the setting “50.00 μM compound”, the “% B3T rescue” value is on record as 65%, the “% MAP2 rescue” value was determined as 58% and the “% Synapse rescue” value worked out at 55%.
On to `Cc1c[nH]c(-c2cnc(NCCNc3ccc(C#N)cn3)nc2-c2ccc(Cl)cc2Cl)n1` [CHIR 99021 trihydrochloride], for which the percent rescue from sAβ42s toxicity at 50 µM runs as follows: under setting [1], 66%; under setting [2], 58%; under setting [3], 46%.
`Oc1cc2c(cc1O)CN(C(=S)NCCc1ccc(Cl)cc1)CCC2` [Capsazepine]: the percent rescue from sAβ42s toxicity at 12.5 µM by setting is: under setting [4], 50%; under setting [5], 44%; under setting [6], 44%.
Take `Oc1cc(O)c2c(c1)O[C@H](c1ccc(O)c(O)c1)[C@H](O)C2` [Epicatechin]: the percent rescue from sAβ42s toxicity at 50 µM runs as follows: under setting [1], 30%; under setting [2], 28%; under setting [3], 20%.
With `C=CC[C@@H]1/C=C(\C)C[C@H](C)C[C@H](OC)[C@H]2O[C@@](O)(C(=O)C(=O)N3CCCC[C@H]3C(=O)O[C@H](/C(C)=C/[C@@H]3CC[C@@H](O)[C@H](OC)C3)[C@H](C)[C@@H](O)CC1=O)[C@H](C)C[C@@H]2OC` [FK 506], the percent rescue from sAβ42s toxicity at 12.5 µM by setting is: under setting [4], 52%; under setting [5], 34%; under setting [6], 34%.
As to `C=C(c1ccc(C(=O)O)c(F)c1)c1cc2c(cc1C)C(C)(C)CCC2(C)C` [Fluorobexarotene], for the setting “3.13 μM compound”, the “% B3T rescue” value came to 50%, the “% MAP2 rescue” value stood at 43% and the “% Synapse rescue” value was 34%. For the same compound, for the setting “12.50 μM compound”, the “% B3T rescue” value is given as 33%, the “% MAP2 rescue” value came to 40% and the “% Synapse rescue” value worked out at 33%.
Take `C/C=C1\C(=O)C[C@H]2[C@@H]3CCC4=CC(=O)CC[C@]4(C)[C@H]3CC[C@]12C` [Guggulsterone]: the percent rescue from sAβ42s toxicity at 50 µM was determined as 36% under setting [1], 19% under setting [2] and 17% under setting [3].
In the case of `O=C(COc1ccc(Cl)cc1)NC1CCC(NC(=O)COc2ccc(Cl)cc2)CC1` (stereo not drawn) [ISR Inhibitor, ISRIB], under “50.00 μM compound”, the “% B3T rescue” value was 22%, the “% MAP2 rescue” value came out at 31% and the “% Synapse rescue” value is reported as 21%.
As to `Cc1cc(C(=O)CN2CCCC2)c(C)n1-c1ccc(F)cc1` [IU1], where the note is “12.50 μM compound”, the “% B3T rescue” value came out at 41%, the “% MAP2 rescue” value was 32% and the “% Synapse rescue” value stood at 23%.
Take `O=C1Nc2ccccc2/C1=C1/Nc2ccccc2/C1=N\O` [Indinibin-3′-monoxime]: the “% B3T rescue” value (3.13 μM compound) worked out at 31%, the “% B3T rescue” value (12.50 μM compound) is 74% and the “% B3T rescue” value (50.00 μM compound) is listed as 49%. The “% MAP2 rescue” value reads like this: (3.13 μM compound) 6%; (12.50 μM compound) 37%; (50.00 μM compound) 23%. Moreover, the “% Synapse rescue” value runs as follows: (3.13 μM compound) 9%; (12.50 μM compound) 44%; (50.00 μM compound) 34%.
As for `CCCn1c(C)c(C(=O)c2cccc3ccccc23)c2ccccc21` [JWH 015], where the note is “12.50 μM compound”, the “% B3T rescue” value amounted to 60%, the “% MAP2 rescue” value turned out to be 50% and the “% Synapse rescue” value was determined as 43%. Where the note is “50.00 μM compound”, the “% B3T rescue” value was 42%, the “% MAP2 rescue” value turned out to be 38% and the “% Synapse rescue” value is 26%.
As for `CCOC(=O)c1ccc(N(C)c2csc(-c3ccccc3)n2)cc1` [Neuropathiazol], for the setting “12.50 μM compound”, the “% B3T rescue” value worked out at 35%, the “% MAP2 rescue” value is recorded as 44% and the “% Synapse rescue” value was found to be 42%. Under “50.00 μM compound”, the “% B3T rescue” value turned out to be 35%, the “% MAP2 rescue” value was found to be 27% and the “% Synapse rescue” value amounted to 28%.
As for `Cn1cnc2c(NCc3ccccc3)nc(NCCO)nc21` [Olomoucine], the percent rescue from sAβ42s toxicity at 50 µM by setting is: under setting [1], 69%; under setting [2], -8%; under setting [3], -15%.
In the case of `OC(CNc1ccccc1)Cn1c2ccc(Br)cc2c2cc(Br)ccc21` (stereo not drawn) [P7C3], where the note is “3.13 μM compound”, the “% B3T rescue” value stood at 30%, the “% MAP2 rescue” value stood at 2% and the “% Synapse rescue” value is 3%. Under “50.00 μM compound”, the “% B3T rescue” value is on record as 43%, the “% MAP2 rescue” value is listed as −8% and the “% Synapse rescue” value was 2%.
Consider `O=C(NOC[C@H](O)CO)c1ccc(F)c(F)c1Nc1ccc(I)cc1F` [PD0325901], for which the percent rescue from sAβ42s toxicity at 0.78 µM was 48% under setting [7], 19% under setting [8] and 15% under setting [9]. Further, the percent rescue from sAβ42s toxicity at 3.13 µM runs as follows: under setting [10], 52%; under setting [11], 23%; under setting [12], 21%. Moreover, the percent rescue from sAβ42s toxicity at 12.5 µM reads like this: under setting [4], 43%; under setting [5], 8%; under setting [6], 8%. Also, the percent rescue from sAβ42s toxicity at 50 µM by setting is: under setting [1], 59%; under setting [2], 27%; under setting [3], 27%.
With `CC(C)[C@H](CO)Nc1nc(Nc2cccc(Cl)c2)c2ncn(C(C)C)c2n1` [Purvalanol A], where the note is “3.13 μM compound”, the “% B3T rescue” value is given as 33%, the “% MAP2 rescue” value is given as 15% and the “% Synapse rescue” value is listed as 24%.
Turning to `Oc1ccc(C=Cc2cc(O)cc(O)c2)cc1` [Resveratrol], the percent rescue from sAβ42s toxicity at 0.78 µM under setting [7] amounted to 27%, the percent rescue from sAβ42s toxicity at 0.78 µM under setting [8] stood at 33% and the percent rescue from sAβ42s toxicity at 0.78 µM under setting [9] amounted to 24%. Moreover, the percent rescue from sAβ42s toxicity at 3.13 µM came to 30% under setting [10], 33% under setting [11] and 27% under setting [12]. Also, the percent rescue from sAβ42s toxicity at 12.5 µM by setting is: under setting [4], 54%; under setting [5], 57%; under setting [6], 49%. In addition, the percent rescue from sAβ42s toxicity at 50 µM is 78% under setting [1], 84% under setting [2] and 78% under setting [3].
`Cn1cc(C2=C(c3ccc(Cl)cc3Cl)C(=O)NC2=O)c2ccccc21` [SB216763]: where the note is “50.00 μM compound”, the “% B3T rescue” value is listed as 46%, the “% MAP2 rescue” value is listed as −24% and the “% Synapse rescue” value is −15%.
For `CCCCCCCCCCCCCCCCCC(=O)NCCc1ccc(O)c(O)c1` [STEARDA], under “0.78 μM compound”, the “% B3T rescue” value amounted to 27%, the “% MAP2 rescue” value stood at 30% and the “% Synapse rescue” value was determined as 24%. For the same compound, under “3.13 μM compound”, the “% B3T rescue” value is 33%, the “% MAP2 rescue” value was determined as 28% and the “% Synapse rescue” value was determined as 24%. Where the note is “12.50 μM compound”, the “% B3T rescue” value is given as 33%, the “% MAP2 rescue” value came to 24% and the “% Synapse rescue” value was 21%.
In the case of `Cc1[nH]c(/C=C2\C(=O)Nc3ccccc32)c(C)c1CCC(=O)O` [SU 6668], under “3.13 μM compound”, the “% B3T rescue” value was determined as 34%, the “% MAP2 rescue” value worked out at 31% and the “% Synapse rescue” value was 26%. Further, for the setting “50.00 μM compound”, the “% B3T rescue” value is 77%, the “% MAP2 rescue” value was found to be 80% and the “% Synapse rescue” value is 75%.
In the case of `Cn1sc(=O)n(Cc2ccccc2)c1=O` [TDZD-8], for the setting “50.00 μM compound”, the “% B3T rescue” value is given as 54%, the “% MAP2 rescue” value is −29% and the “% Synapse rescue” value is reported as −8%.
Take `CC(C)CCC[C@@H](C)[C@H]1CC[C@H]2[C@@H]3CCC4=CC(=NO)CC[C@]4(C)[C@H]3CC[C@]12C` [TRO 19622]: the percent rescue from sAβ42s toxicity at 3.13 µM is 34% under setting [10], -25% under setting [11] and -10% under setting [12]. Moreover, the percent rescue from sAβ42s toxicity at 12.5 µM reads like this: under setting [4], 33%; under setting [5], -36%; under setting [6], -13%.
